Experiments:
[1] = target: Human immunodeficiency virus type 1 protease (Human immunodeficiency virus 1, UniProt Q72874); test: Inhibition of HIV-1 protease.
[2] = target: Human immunodeficiency virus type 1 protease (Human immunodeficiency virus 1) (UniProt Q72874); test: In vitro inhibition of HIV-1 protease, activity expressed as CIC95 in whole cell assay.

| SMILES | IC50 [1] [nM] | IC95 [2] [nM] |
| --- | --- | --- |
| COc1ccc(C[C@@H](O)C[C@@H](Cc2ccccc2)C(=O)N[C@H]2c3ccccc3C[C@H]2O)c(OC)c1 | 105 |  |
| CC(C)(C)NC(=O)[C@@H]1CCCCN1C[C@@H](O)C[C@@H](Cc1ccccc1)C(=O)N[C@H]1c2ccccc2C[C@H]1O | 80 |  |
| COc1ccccc1C[C@@H](O)C[C@@H](Cc1ccccc1)C(=O)N[C@H]1c2ccccc2C[C@H]1O | 80 |  |
| NS(=O)(=O)c1ccccc1C[C@@H](O)C[C@@H](Cc1ccccc1)C(=O)N[C@H]1c2ccccc2C[C@H]1O | 290 |  |
| CS(=O)(=O)c1ccccc1C[C@@H](O)C[C@@H](Cc1ccccc1)C(=O)N[C@H]1c2ccccc2C[C@H]1O | 314 |  |
| COCOc1ccccc1C[C@@H](O)C[C@@H](Cc1ccccc1)C(=O)N[C@H]1c2ccccc2C[C@H]1O | 276 |  |
| O=C(N[C@H]1c2ccccc2C[C@H]1O)[C@H](Cc1ccccc1)C[C@H](O)Cc1ccccc1O | 1600 |  |
| Cc1ccc(C[C@@H](O)C[C@@H](Cc2ccccc2)C(=O)N[C@H]2c3ccccc3C[C@H]2O)c(C(=O)NC(C)(C)C)c1 | 1.7 | 400 |
| CC(C)COc1ccccc1C[C@@H](O)C[C@@H](Cc1ccccc1)C(=O)N[C@H]1c2ccccc2C[C@H]1O | 97 |  |
| CC(C)(C)NC(=O)[C@@H]1CNCCN1C[C@@H](O)C[C@@H](Cc1ccccc1)C(=O)N[C@H]1c2ccccc2C[C@H]1O | 38 | 3000 |
| CC(C)(C)NS(=O)(=O)c1ccccc1C[C@@H](O)C[C@@H](Cc1ccccc1)C(=O)N[C@H]1c2ccccc2C[C@H]1O | 6 |  |
| CC(C)(C)NC(=O)c1ccccc1C[C@@H](O)C[C@@H](Cc1ccccc1)C(=O)N[C@H]1c2ccccc2C[C@H]1O | 4.7 | 800 |
| COc1cc(Oc2ccccc2)ccc1C[C@@H](O)C[C@@H](Cc1ccccc1)C(=O)N[C@H]1c2ccccc2C[C@H]1O | 45 |  |
| O=C(N[C@H]1c2ccccc2C[C@H]1O)[C@H](Cc1ccccc1)C[C@H](O)Cc1ccccc1 | 1200 |  |
| CSc1ccccc1C[C@@H](O)C[C@@H](Cc1ccccc1)C(=O)N[C@H]1c2ccccc2C[C@H]1O | 95 |  |

Source: ChEMBL document CHEMBL1150540, “Aromatic P1 replacements for the highly potent HIV-1 protease inhibitor CRIXIVAN” (Bioorg Med Chem Lett, 1996)
